Where two headings read alike, the source gives them in different places. One block for each molecule: values may come before it.
Experiments:
miR-124 = test: Up-regulation of miR-124 in CD3/CD28 antibody-activated T cells (SYBR green fluorescence quantitative PCR); assay type: cell-based; conditions: T-cell, 72 h; activated human T cells, final compound concentration 1 µM, 3 days; relative to DMSO, U6 internal reference; read-out: up-regulated miR-124 (relative expression level)
Description: The effect of the compound on miR-124 expression levels was assessed in CD3/CD28 antibody-activated T cells. After the activated T cells were treated with the compound, the total cellular RNA was extracted, the cDNA obtained from reverse transcription was used as a template, and quantification was performed by using an SYBR green fluorescence quantitative PCR method and a specific miR-124 primer.
Isolation of T cells: The purchased human peripheral blood mononuclear cells (PBMCs) were counted, filtered, and then washed once with a separation buffer (PBS, pH 7.4, containing 0.5% BSA and 2 mM EDTA), and the supernatant was discarded. Various components were added in such a manner that for every 1 × 10^7 cells, 40 µL of buffer and 10 µL of pan T Cell Biotin-Antibody Cocktail were added. The pellets were resuspended and well mixed, and the suspension was incubated in a refrigerator at 4 °C for 5 min. After the incubation was completed, various components were added in such a manner that for every 1 × 10^7 cells, 30 µL of buffer and 20 µL of Pan T Cell MicroBeads Cocktail were added. After thorough mixing, the mixture was incubated in a refrigerator at 4 °C for 10 min. […] The cells were counted and added at a density of 1 × 10^6 cells/mL to an RPMI1640 culture medium (complete culture medium) containing 10% FBS and 40 U/mL IL-2, and the mixture was stored on ice for later use. […]

[1] = DVS (dynamic vapor sorption) hygroscopicity testing; assay type: physicochemical
Description: DVS refers to dynamic vapor sorption: Surface Measurement Systems instrinsic was adopted; the humidity started at 50%, the humidity range of the investigation was 0%-95%, and the humidity was increased in increments of 10%; the criterion was that each gradient mass change dM/dT is ≤ 0.002%, TMAX 360 min, two cycles.

[2] = Influencing factors stability test (light exposure, high temperature, high humidity); assay type: physicochemical; conditions: for remaining at 120 h / remaining at 240 h / remaining at 720 h: solid storage, read-out: Purity%
Text: Table 11. The influencing factor stability of the crystal form

[3] = Long-term accelerated stability tests; assay type: physicochemical; conditions: for Purity (%): Initial; for Crystal form: up to 6 months
Text: Table 12. The long-term accelerated stability of the crystal form

[4] = Light exposure (4500 Lux), 5 days
[5] = Light exposure (4500 Lux), 10 days
[6] = Light exposure (4500 Lux), 30 days

Compound: FC1(F)Oc2ccc(Nc3ccc4cccc(Cl)c4n3)cc2O1 [Compound 1, 8-Chloro-N-(2,2-difluorobenzo[d][1,3]dioxol-5-yl)quinolin-2-amine]
fold induction at 1 µM (miR-124): 3.9

hygroscopic weight gain ([1]; accelerated experimental conditions (70% RH)): about 0.02% | crystal form re-identified after DVS testing ([1]; after DVS testing): the crystal form did not change | hygroscopic weight gain ([1]; extreme conditions (90% RH)): about 0.18% | hygroscopic weight gain ([1]; normal storage conditions (room temperature and 60% RH)): about 0.02% | Color and state ([2]; 40°C, 5 days): Off-white solid | Crystal form ([2]; 40°C, 5 days): Did not change | Color and state ([2]; 40°C, 10 days): Off-white solid | Crystal form ([2]; 40°C, 10 days): Did not change | Color and state ([2]; 40°C, 30 days): Off-white solid | Crystal form ([2]; 40°C, 30 days): Did not change | Color and state ([2]; 60°C, 5 days): Off-white solid | Crystal form ([2]; 60°C, 5 days): Did not change | Color and state ([2]; 60°C, 10 days): Off-white solid | Crystal form ([2]; 60°C, 10 days): Did not change | Color and state ([2]; 60°C, 30 days): Off-white solid | Crystal form ([2]; 60°C, 30 days): Did not change | Color and state ([2]; 75% RH, 5 days): Off-white solid | Crystal form ([2]; 75% RH, 5 days): Did not change | Color and state ([2]; 75% RH, 10 days): Off-white solid | Crystal form ([2]; 75% RH, 10 days): Did not change | Color and state ([2]; 75% RH, 30 days): Off-white solid | Crystal form ([2]; 75% RH, 30 days): Did not change | Color and state ([2]; 92.5% RH, 5 days): Off-white solid | Crystal form ([2]; 92.5% RH, 5 days): Did not change | Color and state ([2]; 92.5% RH, 10 days): Off-white solid | Crystal form ([2]; 92.5% RH, 10 days): Did not change | Color and state ([2]; 92.5% RH, 30 days): Off-white solid | Crystal form ([2]; 92.5% RH, 30 days): Did not change | Color and state ([2]; Initial, 0 days): Off-white solid | Crystal form ([2]; Initial, 0 days): Crystal form A | Purity (%) ([2]; Initial, 0 days): 100.0% | Color and state [2, 4]: Off-white solid | Crystal form [2, 4]: Did not change | Color and state [2, 5]: Off-white solid | Crystal form [2, 5]: Did not change | Color and state [2, 6]: Off-white solid | Crystal form [2, 6]: Did not change | remaining at 120 h ([2]; 40°C, 5 days): 100% | remaining at 240 h ([2]; 40°C, 10 days): 100% | remaining at 720 h ([2]; 40°C, 30 days): 100% | remaining at 120 h ([2]; 60°C, 5 days): 100% | remaining at 240 h ([2]; 60°C, 10 days): 100% | remaining at 720 h ([2]; 60°C, 30 days): 100% | remaining at 120 h ([2]; 75% RH, 5 days): 100% | remaining at 240 h ([2]; 75% RH, 10 days): 100% | remaining at 720 h ([2]; 75% RH, 30 days): 100% | remaining at 120 h ([2]; 92.5% RH, 5 days): 100% | remaining at 240 h ([2]; 92.5% RH, 10 days): 100% | remaining at 720 h ([2]; 92.5% RH, 30 days): 100% | remaining at 120 h [2, 4]: 100% | remaining at 240 h [2, 5]: 100% | remaining at 720 h [2, 6]: 99.9% | Purity (%) ([3]; 25 °C, 60% RH): 100.0% | Crystal form ([3]; 25 °C, 60% RH): Did not change | Purity (%) ([3]; 40 °C, 75% RH): 100.0% | Crystal form ([3]; 40 °C, 75% RH): Did not change | remaining at 720 h ([3]; solid storage, 25 °C, 60% RH, 1M, read-out: Purity (%)): 100% | remaining at 1440 h ([3]; solid storage, 25 °C, 60% RH, 2M, read-out: Purity (%)): 100% | remaining at 2160 h ([3]; solid storage, 25 °C, 60% RH, 3M, read-out: Purity (%)): 100% | remaining at 4320 h ([3]; solid storage, 25 °C, 60% RH, 6M, read-out: Purity (%)): 100%
Compound: FC1(F)Oc2ccc(Nc3ccc4cccc(Cl)c4n3)cc2O1 [crystal form A, 8-chloro-N-(2,2-difluorobenzo[d][1,3]dioxol-5-yl)quinolin-2-amine]
physical and chemical stability (conclusion) ([2]; light exposure, 40 °C and 60 °C, 75% and 92.5% humidity, 30 days): both good physical stability and good chemical stability | physical and chemical stability (conclusion) ([3]; 25 °C/60% RH and 40 °C/75% RH, 6 months): both good physical stability and good chemical stability
